Data: patent publication US9284296B2, “Bipyridine sulfonamide derivatives for the treatment of neurodegenerative diseases or conditions” (AUBERGINE PHARMACEUTICALS LLC, priority 2010, dated 2016)

Legend:
Format in all cases: cell-based
[1] = system: SH-SY5Y human neuroblastoma cells; assay: Protection against hydrogen peroxide-induced cell death; details: Homo sapiens; SH-SY5Y cells, 1 h preincubation, 100 μM hydrogen peroxide, 24 h, LDH readout of live cells
Method: The aim of this assay is to determine the neuroprotective effect of the compounds when human neuroblastoma cells are exposed to the oxidative stress induced by hydrogen peroxide, which leads to cell death. Therefore the protective effect of the compounds was measured by monitoring cell survival using a suitable commercial kit (Cytotoxicity Detection Kit, Roche Diagnostics GmbH, Mannheim, Germany) based on the quantification of the lactate dehydrogenase activity obtained from lysates of the remaining live cells with a colorimetric assay yielding absorbance at 492 nm as the final readout.
SH-SY5Y human neuroblastoma cells were seeded into 96-well culture plate at a density of 10,000 cells/well. Cells were preincubated for one hour with different concentrations of the compound at a 1% (v/v) DMSO concentration in an equivolumetric mixture of Minimum Essential Medium (MEM) and Nutrient Mixture HAM F12 supplemented with 10% foetal bovine serum, 100 U/ml penicillin, 100 μg/ml streptomycin, 1 mM each of non-essential aminoacids (commercial preparation from GIBCO, Paisley, UK) and 2 mM L-glutamine. Hydrogen peroxide was then added to reach 100 μM and the incubation was extended for 24 h. Then the medium was removed and live cells, which remained attached to the bottom of the plate, were lysed by incubating them during 5 min with 50 μl of 1% (v/v) Triton X-100 in Krebs-Hepes buffer (10 mM Hepes pH7.3 with 145 mM NaCl, 5.5 mM KCl, 1 mM MgCl2, 2 mM CaCl2 and 1 mM glucose). This lysate was used to measure LDH activity using the commercial kit according to the manufacturer's instructions. In the culture plate several wells were included as a control of cell death, in these wells the cells were preincubated with 1% (v/v) DMSO before hydrogen peroxide addition. Likewise, several wells were included as control for full cell survival, in these wells the addition of H2O2 was omitted. The absorbance of each tested sample was normalized to that of the control wells, so that for every compound concentration the percentage of protective effect was calculated with the following equation:
[formula] where “S” is the absorbance of the sample being considered, “E” is the average absorbance of wells used as control of full cell survival and “B” is the average absorbance of wells used as control of cell death. The values obtained at every compound concentration were finally used to calculate the EC50 (i.e., the concentration causing 50% of protective effect) of the tested compound. For that purpose the data were fitted to a classical 4-parameters isotherm equation using the nonlinear regression function of GraphPad™ Prism 5.0 (GraphPad Software Inc.), such equation is described below:
[formula] where “L” is the lower asymptote of the theoretical sigmoidal curve, “H” is the higher asymptote, “C” is the concentration of compound and “n” is the Hill coefficient.

[2] = system: secretion of amyloid peptide β1-40 (Aβ1-40); assay: Inhibition of β-amyloid secretion (CHO7w cells stably transfected with human APP, ELISA); details: CHO-7W, 24 h incubation, range stated for the listed compounds together
Method: The inhibition caused by the compounds on the secretion of amyloid peptide β1-40 (Aβ1-40) was determined by measuring the levels of this peptide in cell supernatants after incubating the cells with several concentrations of the tested compound. A CHO7w cell line, stably transfected with human amyloid precursor protein (APP), was used. Cells were dispensed in 96-well culture plates (5,000 cells/well) and grown in DMEM supplemented with 2% (v/v) foetal bovine serum, 100 U/ml penicillin, 100 μg/ml streptomycin, 2 mM L-glutamine and 200 μg/ml G418 in the presence of several concentrations of the tested compound which had been previously dissolved in DMSO (1% (v/v) DMSO final concentration). After a 24 h incubation the amount of Aβ1-40 secreted to the medium was measured with an ELISA-based commercial kit (Human Amyloid β-40 ELISA High Sensitivity Kit, Millipore, Billerica, Mass., USA) using absorbance at 450 nm as the final readout. In the culture plate several wells were included as a control for lack of Aβ1-40 secretion, in these wells the cells were incubated in the presence of 16% (v/v) DMSO to inhibit cell growth therefore abolishing Aβ1-40 secretion. Likewise, several wells were also included as a control for full Aβ1-40 secretion, in these wells the cells were grown in the presence of 1% (v/v) DMSO. The absorbance of each tested sample was normalized to that of the control wells, so that for every compound concentration the percentage of inhibition was calculated with the following equation:
[formula] where “S” is the absorbance of the sample being considered, “E” is the average absorbance of wells lacking Aβ1-40 secretion and “B” is the average absorbance of wells with full Aβ1-40 secretion. The inhibition values obtained at every compound concentration were fitted to a 4-parameters isotherm equation, as described above, to calculate the […] (i.e., the concentration causing 50% of inhibition of Ab1-40 secretion).

[3] = system: secretion of soluble amyloid precursor protein-α (sAPPα); assay: Stimulation of sAPPα secretion (CHO7w cells stably transfected with human APP, AlphaLISA); details: Homo sapiens, CHO-7W, CHO7w cells, 24 h incubation, range stated for the listed compounds together
Method: The effect of the compounds on the stimulation of the secretion of soluble amyloid precursor protein-α (sAPPα) was determined by measuring the levels of this protein in cell supernatants after incubating the cells with several concentrations of the tested compound. A CHO7w cell line, stably transfected with human APP, was used. Cells were dispensed in 96-well culture plates (5,000 cells/well) and grown in DMEM supplemented with 2% (v/v) foetal bovine serum, 100 U/ml penicillin, 100 μg/ml streptomycin, 2 mM L-glutamine and 200 μg/ml G418 in the presence of several concentrations of the tested compound which had been previously dissolved in DMSO (1% (v/v) DMSO final concentration). After 24 h of incubation 5 μl of the culture supernatants were withdrawn and their sAPPα. concentration was measured with a commercial kit (AlphaLISA® Amyloid Precursor Protein-α Secreted Research kit, PerkinElmer, Waltham, Mass., USA) following manufacturer's instructions. In the culture plate several wells were included as a control for background sAPPα secretion, in these wells the cells were incubated with 1% (v/v) DMSO. The results obtained for each tested sample were normalized by using the following equation:
[formula] where “S” is the sAPPα concentration of the sample being considered, “B” is the average sAPPα concentration of wells used for background secretion and “M” is the sAPPα concentration of wells yielding the highest value. These normalized values obtained at every compound concentration were finally used to calculate the EC50 of the tested compound fitting them to a 4-parameters isotherm equation as already described. The average EC50s ranges are reported in Table 4 together with the maximum observed effect (and the concentration at which this effect was reached), this latter value was calculated for each compound according to the following equation:
[formula] with “M” and “B” as defined above.

IC50 [2]: 0.3 to 42 µM
EC50 [3]: 0.5 to 11 µM
Structure (SMILES): CCN(CC)CCOc1cc(CNS(=O)(=O)c2ccc(Cl)s2)nc(-c2ccccn2)c1 [Compound 30, 5-Chloro-thiophene-2-sulfonic acid [4-(2-diethylamino-ethoxy)-[2,2′]bipyridinyl-6-ylmethyl]-amide]
EC50 [1]: 290 nM
Emax ([3]; read-out: maximum effect (sAPPα secretion)): 250 to 500%
